Source: the supplement of paper PMC13380429

How the values were obtained:
Details in all cases: 72 h
Caco-2 [1] = experiment: cell viability relative to DMSO; higher = less toxic
Calu-3 [2] = experiment: as above
HepG2 [3] = experiment: as above
U2OS [4] = experiment: as above
Vero E6 [5] = experiment: as above
Calu-3 [6] = experiment: relative viability EC50 (midpoint between 100% and the lowest measured viability); higher = less toxic
HepG2 [7] = experiment: as above
Vero E6 [8] = experiment: as above
Caco-2 [9] = experiment: drug sensitivity score (DSS) for viability; higher = more toxic; extreme values may be limits of the assay
Calu-3 [10] = experiment: as above
HepG2 [11] = experiment: as above
U2OS [12] = experiment: as above
Vero E6 [13] = experiment: as above
U2OS [14] = experiment: relative viability EC50 (midpoint between 100% and the lowest measured viability); higher = less toxic

O=C1C2CCN(CC2)C1(CO)CO [PRIMA1]
cell viability (Caco-2 [1]; 1 nM): 95.1%
cell viability (Caco-2 [1]; 10 nM): 91.6%
cell viability (Caco-2 [1]; 100 nM): 102%
cell viability (Caco-2 [1]; 1000 nM): 96.3%
cell viability (Caco-2 [1]; 10000 nM): 66.9%
cell viability (Calu-3 [2]; 1 nM): 105%
cell viability (Calu-3 [2]; 10 nM): 99%
cell viability (Calu-3 [2]; 100 nM): 103%
cell viability (Calu-3 [2]; 1000 nM): 87.6%
cell viability (Calu-3 [2]; 10000 nM): 95.7%
cell viability (HepG2 [3]; 1 nM): 94.5%
cell viability (HepG2 [3]; 10 nM): 97.6%
cell viability (HepG2 [3]; 100 nM): 81%
cell viability (HepG2 [3]; 1000 nM): 97.9%
cell viability (HepG2 [3]; 10000 nM): 104%
cell viability (U2OS [4]; 1 nM): 98.8%
cell viability (U2OS [4]; 10 nM): 95.7%
cell viability (U2OS [4]; 100 nM): 101%
cell viability (U2OS [4]; 1000 nM): 98.1%
cell viability (U2OS [4]; 10000 nM): 70%
cell viability (Vero E6 [5]; 1 nM): 87%
cell viability (Vero E6 [5]; 10 nM): 92.6%
cell viability (Vero E6 [5]; 100 nM): 89.6%
cell viability (Vero E6 [5]; 1000 nM): 94.2%
cell viability (Vero E6 [5]; 10000 nM): 99.5%
relative viability EC50 (Calu-3 [6]): > 10 µM
relative viability EC50 (HepG2 [7]): > 10 µM
relative viability EC50 (Vero E6 [8]): > 10 µM
drug sensitivity score (Caco-2 [9]): 2.1
drug sensitivity score (Calu-3 [10]): 0.6
drug sensitivity score (HepG2 [11]): 0
drug sensitivity score (U2OS [12]): 1.6
drug sensitivity score (Vero E6 [13]): 0

O=C(Nc1cccc(Cl)c1)Nc1ncc(CCNc2ncnc3ccsc23)s1 [SNS-314]
cell viability (Caco-2 [1]; 1 nM): 92.8%
cell viability (Caco-2 [1]; 10 nM): 99%
cell viability (Caco-2 [1]; 100 nM): 90.4%
cell viability (Caco-2 [1]; 1000 nM): 85.8%
cell viability (Caco-2 [1]; 10000 nM): 69%
cell viability (HepG2 [3]; 1 nM): 92.8%
cell viability (HepG2 [3]; 10 nM): 96.8%
cell viability (HepG2 [3]; 100 nM): 76.3%
cell viability (HepG2 [3]; 1000 nM): 67.5%
cell viability (HepG2 [3]; 10000 nM): 41.6%
cell viability (U2OS [4]; 1 nM): 98.5%
cell viability (U2OS [4]; 10 nM): 102%
cell viability (U2OS [4]; 100 nM): 88.2%
cell viability (U2OS [4]; 1000 nM): 90.4%
cell viability (U2OS [4]; 10000 nM): 74.8%
cell viability (Vero E6 [5]; 1 nM): 103%
cell viability (Vero E6 [5]; 10 nM): 103%
cell viability (Vero E6 [5]; 100 nM): 86.3%
cell viability (Vero E6 [5]; 1000 nM): 89.9%
cell viability (Vero E6 [5]; 10000 nM): 93.2%
relative viability EC50 (HepG2 [7]): 0.315 µM
relative viability EC50 (Vero E6 [8]): > 10 µM
drug sensitivity score (Caco-2 [9]): 2.9
drug sensitivity score (HepG2 [11]): 9.2
drug sensitivity score (U2OS [12]): 1.9
drug sensitivity score (Vero E6 [13]): 1.8

CNC(=O)c1ccccc1Nc1cc(Nc2ccc(N3CCOCC3)cc2OC)ncc1C(F)(F)F [VS-4718]
cell viability (Caco-2 [1]; 1 nM): 102%
cell viability (Caco-2 [1]; 10 nM): 91.8%
cell viability (Caco-2 [1]; 100 nM): 96.4%
cell viability (Caco-2 [1]; 1000 nM): 82.5%
cell viability (Caco-2 [1]; 10000 nM): 62.5%
cell viability (Calu-3 [2]; 1 nM): 108%
cell viability (Calu-3 [2]; 10 nM): 97%
cell viability (Calu-3 [2]; 100 nM): 86.4%
cell viability (Calu-3 [2]; 1000 nM): 68.3%
cell viability (Calu-3 [2]; 10000 nM): 74.5%
cell viability (HepG2 [3]; 1 nM): 98.6%
cell viability (HepG2 [3]; 10 nM): 93.2%
cell viability (HepG2 [3]; 100 nM): 99.1%
cell viability (HepG2 [3]; 1000 nM): 65%
cell viability (HepG2 [3]; 10000 nM): 19.3%
cell viability (U2OS [4]; 1 nM): 98.5%
cell viability (U2OS [4]; 10 nM): 94.2%
cell viability (U2OS [4]; 100 nM): 95.2%
cell viability (U2OS [4]; 1000 nM): 82.1%
cell viability (U2OS [4]; 10000 nM): 35.1%
cell viability (Vero E6 [5]; 1 nM): 103%
cell viability (Vero E6 [5]; 10 nM): 101%
cell viability (Vero E6 [5]; 100 nM): 85.8%
cell viability (Vero E6 [5]; 1000 nM): 69.2%
cell viability (Vero E6 [5]; 10000 nM): 54.4%
relative viability EC50 (HepG2 [7]): 1.12 µM
relative viability EC50 (U2OS [14]): 1.5 µM
drug sensitivity score (Caco-2 [9]): 3.6
drug sensitivity score (Calu-3 [10]): 6.6
drug sensitivity score (HepG2 [11]): 9
drug sensitivity score (U2OS [12]): 6.2
drug sensitivity score (Vero E6 [13]): 7

O=C(CC(c1ccccc1)c1ccccc1)N1CCN(C(c2ccccc2)c2ccccc2)CC1 [Z160]
cell viability (Caco-2 [1]; 1 nM): 99.9%
cell viability (Caco-2 [1]; 10 nM): 103%
cell viability (Caco-2 [1]; 100 nM): 97.1%
cell viability (Caco-2 [1]; 1000 nM): 92.9%
cell viability (Caco-2 [1]; 10000 nM): 67.8%
cell viability (Calu-3 [2]; 1 nM): 104%
cell viability (Calu-3 [2]; 10 nM): 92.8%
cell viability (Calu-3 [2]; 100 nM): 104%
cell viability (Calu-3 [2]; 1000 nM): 93.9%
cell viability (Calu-3 [2]; 10000 nM): 114%
cell viability (HepG2 [3]; 1 nM): 88.7%
cell viability (HepG2 [3]; 10 nM): 104%
cell viability (HepG2 [3]; 100 nM): 88.5%
cell viability (HepG2 [3]; 1000 nM): 95.6%
cell viability (HepG2 [3]; 10000 nM): 57.7%
cell viability (U2OS [4]; 1 nM): 101%
cell viability (U2OS [4]; 10 nM): 99%
cell viability (U2OS [4]; 100 nM): 99.1%
cell viability (U2OS [4]; 1000 nM): 97.2%
cell viability (U2OS [4]; 10000 nM): 88.6%
cell viability (Vero E6 [5]; 1 nM): 93.7%
cell viability (Vero E6 [5]; 10 nM): 99.1%
cell viability (Vero E6 [5]; 100 nM): 94.9%
cell viability (Vero E6 [5]; 1000 nM): 99.8%
cell viability (Vero E6 [5]; 10000 nM): 100%
relative viability EC50 (Calu-3 [6]): > 10 µM
relative viability EC50 (U2OS [14]): > 10 µM
relative viability EC50 (Vero E6 [8]): > 10 µM
drug sensitivity score (Caco-2 [9]): 2.6
drug sensitivity score (Calu-3 [10]): 0
drug sensitivity score (HepG2 [11]): 2.9
drug sensitivity score (U2OS [12]): 0.1
drug sensitivity score (Vero E6 [13]): 0
